# Data from publication PMC9578396, “Intrinsic Antibacterial Activity of Xeruborbactam In Vitro: Assessing Spectrum and Mode of Action” (Antimicrobial Agents and Chemotherapy, 2022).
# Tests used:
# PBP1a = molecular target: T1, PBP1a (Pseudomonas aeruginosa, UniProt Q07806); design: method as in PMID 18250190; conditions: value in parentheses; P. aeruginosa PAO1; cited from earlier work
# T1 construct: Five microliters of total bacterial membrane preparation was mixed with 5 μL of a test compound; endogenous in cells
# T1 sequence (Q07806 whole entry): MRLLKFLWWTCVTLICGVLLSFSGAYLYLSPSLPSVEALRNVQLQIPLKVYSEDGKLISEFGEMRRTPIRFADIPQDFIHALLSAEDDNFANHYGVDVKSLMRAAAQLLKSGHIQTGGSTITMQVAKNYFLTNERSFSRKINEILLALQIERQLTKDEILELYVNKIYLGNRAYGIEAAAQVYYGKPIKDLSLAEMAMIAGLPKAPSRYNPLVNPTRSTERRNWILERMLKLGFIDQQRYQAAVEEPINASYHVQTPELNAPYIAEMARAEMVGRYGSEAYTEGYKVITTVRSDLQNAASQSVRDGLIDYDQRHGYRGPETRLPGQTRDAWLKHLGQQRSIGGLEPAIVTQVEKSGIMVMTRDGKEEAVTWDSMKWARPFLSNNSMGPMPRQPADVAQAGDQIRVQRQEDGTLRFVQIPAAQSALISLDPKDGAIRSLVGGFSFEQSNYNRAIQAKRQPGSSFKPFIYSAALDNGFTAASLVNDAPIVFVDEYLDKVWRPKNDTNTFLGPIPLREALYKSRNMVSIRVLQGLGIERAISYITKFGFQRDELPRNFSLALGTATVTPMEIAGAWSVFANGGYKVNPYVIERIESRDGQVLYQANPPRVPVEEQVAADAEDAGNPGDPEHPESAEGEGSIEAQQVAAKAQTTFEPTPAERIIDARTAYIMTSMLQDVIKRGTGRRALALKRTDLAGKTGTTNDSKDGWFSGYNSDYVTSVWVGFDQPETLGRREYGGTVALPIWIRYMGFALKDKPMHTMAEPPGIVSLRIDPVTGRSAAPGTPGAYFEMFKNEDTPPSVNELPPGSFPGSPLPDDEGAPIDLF
# PBP2 [1] = molecular target: T2, PBP2 (Acinetobacter baumannii, UniProt D0C8Z9); design: method as in earlier work; conditions: value in parentheses; A. baumannii ATCC 19606; cited from earlier work
# T2 construct: Five microliters of total bacterial membrane preparation was mixed with 5 μL of a test compound; endogenous in cells
# T2 sequence (D0C8Z9 1-672): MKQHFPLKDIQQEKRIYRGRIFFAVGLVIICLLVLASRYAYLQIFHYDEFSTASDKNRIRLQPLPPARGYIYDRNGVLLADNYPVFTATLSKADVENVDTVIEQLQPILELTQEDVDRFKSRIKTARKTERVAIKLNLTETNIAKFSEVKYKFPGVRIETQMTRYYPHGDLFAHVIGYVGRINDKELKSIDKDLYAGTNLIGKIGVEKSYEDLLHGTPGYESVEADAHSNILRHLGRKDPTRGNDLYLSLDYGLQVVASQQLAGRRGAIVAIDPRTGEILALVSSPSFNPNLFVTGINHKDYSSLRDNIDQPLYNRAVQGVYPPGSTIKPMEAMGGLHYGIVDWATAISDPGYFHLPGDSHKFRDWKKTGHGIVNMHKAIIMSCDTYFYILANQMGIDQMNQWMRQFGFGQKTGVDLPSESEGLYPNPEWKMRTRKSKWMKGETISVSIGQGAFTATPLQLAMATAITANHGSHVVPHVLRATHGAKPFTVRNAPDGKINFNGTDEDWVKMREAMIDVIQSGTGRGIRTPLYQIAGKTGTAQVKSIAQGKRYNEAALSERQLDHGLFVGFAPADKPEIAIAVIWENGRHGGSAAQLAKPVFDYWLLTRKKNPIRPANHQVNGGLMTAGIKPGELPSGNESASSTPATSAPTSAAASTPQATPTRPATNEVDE
# PBP2 [2] = molecular target: PBP2 (Klebsiella pneumoniae, UniProt A6T696); design: method as in PMID 29712652; conditions: read-out: IC50, PBP2; value in parentheses; K. pneumoniae ATCC 43816; cited from earlier work
# PBP2 (Klebsiella pneumoniae, UniProt A6T696), sequence (A6T696 entry or part of it): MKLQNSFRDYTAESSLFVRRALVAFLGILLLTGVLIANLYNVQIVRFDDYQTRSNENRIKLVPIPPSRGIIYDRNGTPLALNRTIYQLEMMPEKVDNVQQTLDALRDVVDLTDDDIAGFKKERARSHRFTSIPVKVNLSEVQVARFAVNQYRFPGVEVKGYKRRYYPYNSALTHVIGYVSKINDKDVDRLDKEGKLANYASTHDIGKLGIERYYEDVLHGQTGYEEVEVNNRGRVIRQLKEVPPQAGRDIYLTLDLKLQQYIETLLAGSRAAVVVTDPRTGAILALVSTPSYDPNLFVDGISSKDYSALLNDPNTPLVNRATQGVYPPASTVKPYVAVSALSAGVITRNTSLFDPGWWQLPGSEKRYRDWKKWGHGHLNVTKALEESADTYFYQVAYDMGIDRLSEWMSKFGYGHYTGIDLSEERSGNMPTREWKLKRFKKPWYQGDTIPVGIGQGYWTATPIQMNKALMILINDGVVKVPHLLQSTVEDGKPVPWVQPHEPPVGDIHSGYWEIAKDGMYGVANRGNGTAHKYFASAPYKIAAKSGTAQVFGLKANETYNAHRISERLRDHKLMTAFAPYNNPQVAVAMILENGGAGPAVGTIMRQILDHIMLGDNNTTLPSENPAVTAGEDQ
# PBP1b = molecular target: T3, PBP1b (Escherichia coli, UniProt P02919); design: method as in PMID 18250190; conditions: read-out: IC50, PBP1b; value in parentheses; E. coli MC1400; cited from earlier work
# T3 construct: Five microliters of total bacterial membrane preparation was mixed with 5 μL of a test compound; endogenous in cells; host or cells: Escherichia coli ECM5497 (MG1655), total membrane preparation
# T3 sequence (P02919 whole entry): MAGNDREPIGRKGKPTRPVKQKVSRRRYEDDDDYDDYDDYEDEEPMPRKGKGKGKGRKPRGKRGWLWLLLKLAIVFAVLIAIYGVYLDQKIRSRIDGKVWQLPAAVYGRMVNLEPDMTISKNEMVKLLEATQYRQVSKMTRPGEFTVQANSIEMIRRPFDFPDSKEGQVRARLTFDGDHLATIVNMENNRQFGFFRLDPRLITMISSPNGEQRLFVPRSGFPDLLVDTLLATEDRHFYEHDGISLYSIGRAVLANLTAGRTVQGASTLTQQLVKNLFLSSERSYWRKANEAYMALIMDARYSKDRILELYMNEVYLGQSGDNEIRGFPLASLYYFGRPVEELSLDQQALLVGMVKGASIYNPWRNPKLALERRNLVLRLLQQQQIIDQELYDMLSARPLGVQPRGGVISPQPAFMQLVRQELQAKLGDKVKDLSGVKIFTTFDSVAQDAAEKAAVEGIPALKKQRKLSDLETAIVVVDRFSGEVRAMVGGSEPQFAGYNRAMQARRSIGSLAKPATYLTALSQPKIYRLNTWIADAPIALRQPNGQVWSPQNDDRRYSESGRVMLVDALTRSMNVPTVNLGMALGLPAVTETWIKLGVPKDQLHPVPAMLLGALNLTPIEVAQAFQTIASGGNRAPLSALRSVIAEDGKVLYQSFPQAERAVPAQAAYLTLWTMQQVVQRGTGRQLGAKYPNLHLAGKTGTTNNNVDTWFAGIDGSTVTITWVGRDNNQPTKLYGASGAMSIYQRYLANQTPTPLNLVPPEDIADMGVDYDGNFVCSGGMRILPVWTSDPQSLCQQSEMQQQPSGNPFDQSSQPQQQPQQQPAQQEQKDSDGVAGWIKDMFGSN
# PBP2 [3] = test system: PBP2; design: method as in PMID 18250190; conditions: value in parentheses; E. coli MC1400; cited from earlier work
# Klebsiella oxytoca = experiment: Broth microdilution MIC (CLSI), Klebsiella oxytoca; assay type: cell-based
# From the text: Bacterial isolates were subjected to broth microdilution susceptibility testing, performed according to Clinical and Laboratory Standards Institute (CLSI) methods ([46]), using panels prepared in-house. Meropenem was purchased from Sandoz, and all other antibiotics were from Sigma-Aldrich. Xeruborbactam was synthesized at Qpex Biopharma, San Diego, CA. Avibactam was purchased from eNovation Chemicals LLC, Bridgewater, NJ, USA; zidebactam was from MedKoo Biosciences, Inc., Morrisville, NC, and nacubactam was from Advanced ChemBlocks, Hayward, CA. Durlobactam was synthesized at Acme Bioscience, Palo Alto, CA, USA.
# [4] = test system: Klebsiella pneumoniae strain KPM1026a; experiment: Time-kill study; assay type: cell-based
# PBP3 = molecular target: T4, PBP3 (Escherichia coli, UniProt P0AD68); experiment: Gel-based Bocillin FL competition PBP binding assay
# T4 construct: endogenous in cells; host or cells: Escherichia coli ECM5497 (MG1655), total membrane preparation
# T4 sequence (P0AD68 whole entry): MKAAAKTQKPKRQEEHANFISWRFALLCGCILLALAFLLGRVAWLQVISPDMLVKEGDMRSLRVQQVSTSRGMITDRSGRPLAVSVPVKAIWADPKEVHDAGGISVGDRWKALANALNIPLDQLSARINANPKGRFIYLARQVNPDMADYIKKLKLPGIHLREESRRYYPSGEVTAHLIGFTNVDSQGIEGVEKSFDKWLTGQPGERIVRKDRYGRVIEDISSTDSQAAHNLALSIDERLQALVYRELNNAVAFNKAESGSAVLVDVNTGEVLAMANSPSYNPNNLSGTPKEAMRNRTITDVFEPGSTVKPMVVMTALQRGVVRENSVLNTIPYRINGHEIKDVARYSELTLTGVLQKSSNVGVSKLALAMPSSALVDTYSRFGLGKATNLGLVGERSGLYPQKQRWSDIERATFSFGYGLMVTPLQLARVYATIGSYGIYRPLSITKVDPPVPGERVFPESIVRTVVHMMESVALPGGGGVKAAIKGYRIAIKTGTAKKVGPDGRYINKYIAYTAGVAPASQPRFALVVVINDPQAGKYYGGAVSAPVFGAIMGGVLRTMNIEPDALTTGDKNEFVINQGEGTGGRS
# Experimental: Ten milliliters of overnight bacterial culture was inoculated in 1 L of LB medium and grown to an OD600 of 0.7 to 0.9. The cell pellet was washed once with 50 mL of solution containing 100 mM Na-phosphate at pH 7.0 and 100 mM NaCl and resuspended in 10 mL of the same buffer with one tablet of EDTA-free mini-protease inhibitor and 10 mg of lysozyme. Cell suspensions were incubated for 45 min at 37°C, and then 200 μL of DNase I was added along with MgSO4 (to a final concentration of 10 mM), followed by three cycles of freeze-thawing (10 min and 20 min, respectively). Four cycles of sonication at maximum power were performed next, each cycle lasting for 30 s with 1 min on ice between cycles. The cell suspension was centrifuged at 12,000 × g for 10 min at 4°C. The supernatant was collected and centrifuged at 100,000 × g for 45 min at 4°C. The pellet was washed three times with 10 mL of 100 mM Na-phosphate, pH 7.0, by resuspension and subsequent centrifugation at 100,000 × g for 10 min at 4°C. The pellet was finally resuspended in 1.5 mL of 100 mM Na-phosphate, pH 7.0, and passed several times through a Dounce homogenizer (tight pestle). […]
# Five microliters of total bacterial membrane preparation was mixed with 5 μL of a test compound at a desired concentration in 100 mM Na-phosphate buffer, pH 7.0. […] IC50 values were calculated with Prism software (GraphPad).
# [5] = Klebsiella oxytoca, 23 isolates
SMILES,IC50 (PBP1a) [nM],IC50 (PBP2 [1]) [nM],IC50 (PBP2 [2]) [nM],IC50 (PBP1b) [nM],IC50 (PBP2 [3]) [nM],"MIC (Klebsiella oxytoca; Klebsiella oxytoca isolates, read-out: highest MIC observed) [µg/mL]",MIC50 (Klebsiella oxytoca; [5]) [µg/mL],MIC90 (Klebsiella oxytoca; [5]) [µg/mL],MIC range (Klebsiella oxytoca; [5]) [µg/mL],kinetics of killing [4],IC50 (PBP3) [nM]
C[C@@H](O)[C@H]1C(=O)N2C(C(=O)O)=C(S[C@@H]3CN[C@H](C(=O)N(C)C)C3)[C@H](C)[C@H]12 [Meropenem],500,< 80,< 20,3400,3,,,,,,
O=C(O)c1c(F)ccc2c1OB(O)[C@@H]1C[C@H]21 [Xeruborbactam],,,,,,32,8,16,8 to 32,"time-dependent, concentration-independent bacterial killing",73000 ± 10000
